Data reported in patent US20240277713A1 (Kadmon Corporation, LLC, priority 2022, published 2024).
Where two headings read alike, the source gives them in different places.

Columns and labels:
[1] = Toxicokinetics in pregnant New Zealand White rabbits (Example 2); format: in vivo, rabbit; conditions: female, New Zealand White, rabbit, in vivo, po; for AUC(0-t): read-out: maternal AUC0-24; for Cmax: read-out: maternal Cmax
Procedure: The study was conducted in two phases: Phase A was a dose range finding tolerance study with non-pregnant rabbits, and Phase B was the pilot developmental toxicity study.
All fetuses were given the appropriate external examination.

Sprague-Dawley rats = assay: Fertility and early embryonic development to implantation study in Sprague-Dawley rats (Example 5)
Excerpt: This study design used naive animals of both sexes, incorporated treatment of both sexes, and provided for a recovery period for the treated males based on study outcome.
Male and female Sprague-Dawley (SD) rats were obtained from Charles River Laboratories, Raleigh, North Carolina (approximately 7 to 10 weeks of age). Using a standard, by weight, randomization procedure, 273 male and 273 female animals (weighing 229 to 497 g and 169 to 242 g, respectively, at randomization) were assigned to control, treatment, and toxicokinetic (TK) groups. The dose volume for each group was 10 mL/kg providing a dose concentration in mg/base/mL of one tenth the dose level). (In Table 24, T=Treated; U=Untreated).
Dosing began at 11 weeks of age and 70 days prior to pairing (with untreated females) for the treated males, and 14 days prior to pairing (with untreated males) for the treated females. Dosing of the males continued through the mating and postmating period to euthanasia, while dosing of the females continued through the mating period to GD 7. Females with no evidence of mating were dosed for 7 days following completion of the mating period. Males designated for the recovery phase were dosed for 70 days, and then received a 77 day recovery period.
Animals were observed cageside, for detailed clinical changes, body weights, food consumption, estrous cycle determinations, plasma analysis, sperm analysis, toxicokinetic analysis, and anatomical pathology including uterine and ovarian examinations.
Cageside observations were made at least twice daily.
Detailed clinical observations were made during treatment phases: for males, twice weekly during treatment (4 hours+/−1 hour on dosing days), and for females, daily during treatment (4 hours+/−1 hour on dosing days). During non-treatment phases (males and females), detailed clinical observations occurred weekly and also prior to the scheduled uterine examination (females) on GD 13.
For each endpoint, treatment groups were compared to the control group using the analysis outlined in Table 25. Data for some endpoints, as indicated, were transformed by an arcsin-square root transformation prior to conducting the specified analysis.

dogs = assay: General toxicology studies in dogs; format: in vivo, dog
rats = assay: General toxicology studies in rats; format: in vivo, rat
human serum albumin = human serum albumin (Homo sapiens, UniProt P02768); assay: Binding to human serum albumin in vitro; format: in vitro ADME
Chain of human serum albumin (P02768 25-609): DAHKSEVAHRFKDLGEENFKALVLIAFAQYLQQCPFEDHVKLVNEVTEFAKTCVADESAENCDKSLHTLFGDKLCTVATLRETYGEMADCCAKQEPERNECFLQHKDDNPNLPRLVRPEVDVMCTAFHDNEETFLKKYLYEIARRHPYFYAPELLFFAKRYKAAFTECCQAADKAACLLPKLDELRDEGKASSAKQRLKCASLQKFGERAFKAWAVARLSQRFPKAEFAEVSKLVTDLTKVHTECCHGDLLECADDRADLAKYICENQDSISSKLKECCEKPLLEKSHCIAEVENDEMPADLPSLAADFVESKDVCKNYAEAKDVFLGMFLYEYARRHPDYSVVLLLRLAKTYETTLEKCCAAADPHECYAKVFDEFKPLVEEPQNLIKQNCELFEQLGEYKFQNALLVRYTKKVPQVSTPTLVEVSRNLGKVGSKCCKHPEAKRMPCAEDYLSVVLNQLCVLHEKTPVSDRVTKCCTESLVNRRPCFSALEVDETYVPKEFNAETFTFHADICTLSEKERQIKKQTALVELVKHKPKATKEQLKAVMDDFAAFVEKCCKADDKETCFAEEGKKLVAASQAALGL

[2] = molecular target: CYP3A4, CYP2C8, CYP2D6, and UGT1A9 (Homo sapiens, UniProt P08684); assay: Metabolism in vitro; format: in vitro ADME
Chain of CYP3A4, CYP2C8, CYP2D6, and UGT1A9 (Homo sapiens, UniProt P08684) (P08684 2-503): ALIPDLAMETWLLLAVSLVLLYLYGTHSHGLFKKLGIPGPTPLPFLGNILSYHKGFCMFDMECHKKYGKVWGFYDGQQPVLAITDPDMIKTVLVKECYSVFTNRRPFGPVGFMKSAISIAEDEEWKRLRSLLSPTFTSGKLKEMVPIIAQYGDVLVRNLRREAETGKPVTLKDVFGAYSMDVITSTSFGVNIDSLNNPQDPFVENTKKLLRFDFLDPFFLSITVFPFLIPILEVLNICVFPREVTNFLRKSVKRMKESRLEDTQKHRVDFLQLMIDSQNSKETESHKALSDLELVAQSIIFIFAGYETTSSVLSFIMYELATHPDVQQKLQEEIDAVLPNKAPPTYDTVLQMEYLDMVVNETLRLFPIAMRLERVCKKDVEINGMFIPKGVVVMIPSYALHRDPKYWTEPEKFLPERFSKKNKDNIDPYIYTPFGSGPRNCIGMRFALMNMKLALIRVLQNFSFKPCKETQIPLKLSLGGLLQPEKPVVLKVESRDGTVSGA

[3] = test system: CYP3A4, CYP2C8, CYP2D6, and UGT1A9; assay: Metabolism in vitro; format: in vitro ADME
[4] = Clinical drug interaction studies, effects of other drugs on belumosudil; format: in vivo, human; conditions: healthy subjects
P-gp = P-gp (Homo sapiens, UniProt P08183); assay: Transporter systems in vitro: P-gp; format: in vitro ADME
Chain of P-gp (P08183 whole entry): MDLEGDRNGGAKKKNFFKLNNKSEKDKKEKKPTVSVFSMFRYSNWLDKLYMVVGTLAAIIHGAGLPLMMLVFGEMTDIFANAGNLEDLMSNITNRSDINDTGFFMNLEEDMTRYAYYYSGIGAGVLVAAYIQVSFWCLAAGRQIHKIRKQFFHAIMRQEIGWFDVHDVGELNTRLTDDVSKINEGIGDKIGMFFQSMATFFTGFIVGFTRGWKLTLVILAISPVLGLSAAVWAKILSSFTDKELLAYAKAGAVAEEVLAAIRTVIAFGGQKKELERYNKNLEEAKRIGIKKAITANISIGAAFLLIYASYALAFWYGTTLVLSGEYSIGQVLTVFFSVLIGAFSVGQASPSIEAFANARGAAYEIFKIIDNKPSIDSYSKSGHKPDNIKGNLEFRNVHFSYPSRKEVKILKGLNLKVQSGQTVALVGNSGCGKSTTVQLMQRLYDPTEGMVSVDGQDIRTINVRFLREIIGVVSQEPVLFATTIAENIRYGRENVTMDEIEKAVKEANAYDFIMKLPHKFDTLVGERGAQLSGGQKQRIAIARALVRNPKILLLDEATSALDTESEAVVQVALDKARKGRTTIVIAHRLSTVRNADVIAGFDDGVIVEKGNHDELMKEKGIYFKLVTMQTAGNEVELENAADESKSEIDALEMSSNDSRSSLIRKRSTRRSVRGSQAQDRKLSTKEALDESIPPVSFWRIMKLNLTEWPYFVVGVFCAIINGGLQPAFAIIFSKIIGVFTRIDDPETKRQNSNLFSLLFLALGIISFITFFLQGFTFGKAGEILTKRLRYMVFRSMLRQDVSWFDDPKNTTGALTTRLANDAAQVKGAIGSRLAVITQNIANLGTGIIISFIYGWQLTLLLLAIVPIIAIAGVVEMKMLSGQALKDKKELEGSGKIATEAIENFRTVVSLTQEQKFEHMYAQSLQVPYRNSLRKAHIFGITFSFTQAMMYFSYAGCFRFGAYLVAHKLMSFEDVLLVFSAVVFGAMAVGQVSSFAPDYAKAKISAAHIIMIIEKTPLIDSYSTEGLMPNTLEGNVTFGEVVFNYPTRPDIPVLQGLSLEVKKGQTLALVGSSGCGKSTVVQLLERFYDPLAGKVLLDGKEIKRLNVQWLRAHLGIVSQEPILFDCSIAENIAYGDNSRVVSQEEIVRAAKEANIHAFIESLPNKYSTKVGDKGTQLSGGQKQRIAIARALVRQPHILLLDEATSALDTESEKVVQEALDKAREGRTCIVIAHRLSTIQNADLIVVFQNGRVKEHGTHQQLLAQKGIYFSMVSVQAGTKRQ

bacterial = assay: in vitro bacterial mutagenicity (Ames) assay; format: cell-based
[5] = coadministration of rabeprazole

CC(C)NC(=O)COc1cccc(-c2nc(Nc3ccc4[nH]ncc4c3)c3ccccc3n2)c1 [belumosudil, 2-{3-[4-(1H-indazol-5-ylamino)-2-quinazolinyl]phenoxy}-N-(propan-2-yl) acetamide]
AUC(0-t) ([1]; 50 mg/kg/day): 2480 ng·h/mL | Cmax ([1]; 50 mg/kg/day): 621 ng/mL | AUC(0-t) ([1]; 250 mg/kg/day): 15600 ng·h/mL | Cmax ([1]; 250 mg/kg/day): 2100 ng/mL | NOAEL for female reproductive performance and fertility (Sprague-Dawley rats; female rats): 275 mg base/kg/day | dose with adverse findings in female rats (increased pre- or post-implantation loss, decreased number of viable embryos) (Sprague-Dawley rats; female, Sprague-Dawley, rat, in vivo): 275 mg/kg/day | NOAEL for general toxicity endpoints (Sprague-Dawley rats; male and female rats): 50 mg base/kg/day | NOAEL for male reproductive performance and fertility (Sprague-Dawley rats; male rats): 150 mg base/kg/day | dose in male rats with abnormal sperm findings and testes/epididymis organ changes (Sprague-Dawley rats; male, Sprague-Dawley, rat, in vivo, po): 275 mg/kg/day | reproductive and fertility indices, treated females (Sprague-Dawley rats; rat, in vivo): unaffected | NOAEL for ovarian and uterine parameters (Sprague-Dawley rats; treated females): 150 mg base/kg/day | dose with spermatozoa degeneration (dogs): 35 mg/kg/day | dose with decreased follicular development in ovaries (rats): 275 mg/kg/day | binding to human serum albumin (human serum albumin): 99.9% | primary metabolizing enzyme [2]: primarily metabolized by CYP3A4 | minor metabolizing enzymes [3]: to a lesser extent by CYP2C8, CYP2D6, and UGT1A9 | effect on belumosudil exposure ([4]; coadministered with itraconazole): no clinically meaningful effect | decrease in belumosudil AUC ([4]; coadministration of omeprazole): 47% | decrease in belumosudil Cmax ([4]; coadministration of omeprazole): 68% | decrease in belumosudil AUC [4, 5]: 80% | decrease in belumosudil Cmax [4, 5]: 87% | decrease in belumosudil AUC ([4]; coadministration of rifampin): 72% | decrease in belumosudil Cmax ([4]; coadministration of rifampin): 59% | P-gp substrate status (P-gp): substrate of P-gp | P-gp inhibition (P-gp; clinically relevant concentrations): inhibits | genotoxicity, bacterial mutagenicity (Ames) assay (bacterial): not genotoxic
